Data taken from US20040259912A1, “Benzine derivatives, process for preparing the same and use thereof” (priority 2001, published 2004).

What was measured:
[1] = test system: ICR male mice; conditions: 0.01 mL dropped to the eye; capsaicin (0.3 μg) challenge at 1 hour; stimulating or desensitizing activity not specified
Procedure: Eight of 4-5 weeks old ICR male mice (Japan SLC) were used in a group. 0.01 mL of the drug was added dropwise to the eye, and the time when the mouse continued to close the eye was measured. The stimulation of the drug was evaluated as positive when the time is more than 10 seconds, and as negative when the time is less than 10 seconds. At 1 hour after the initial treatment, a solution of capsaicin (0.3 μg) was added dropwise to the eye to evaluate whether the stimulation is or not, and examined the desensitizing activity of the compound. The stimulating and desensitizing activity of the drug were calculated as a value of ED50. The drug was dissolved in a mixture of 10% ethanol, 20% Tween and 80-70% physiological salt solution.

[2] = test system: RVR1/CHO and HVR1/CHO strains (CHO-K1 cells expressing rat VR1 / human VR1); conditions: in the presence of 1 μM of the compound; 3 hours reaction, then 20 hours culture with Alama Blue; strain (RVR1/CHO or HVR1/CHO) not specified
Procedure: RVR1/CHO and HVR1/CHO strains were inoculated on 96-well microplates (Corning Coaster) at a concentration of 4×10^4 cells/well, respectively and were cultured for 20 hours. After the culture was removed by suction, 180 μl of Ham's F12 medium (GIBCO BRL) containing 10% fetal calf serum (GIBCO BRL) was added to each well. Next, 20 μl of the assay buffer (Ham's F12 medium (GIBCO BRL), 0.5% BSA and 20 mM HEPES (Dojindo Molecular Technologies, Inc.), pH 7.5) containing a test compound at a final concentration of 1 μM was added to each well and the reaction was carried out in a carbon dioxide incubator for 3 hours. Subsequently, and Alama Blue (Wako Pure Chemical Industries, Ltd.) at a concentration of 25 μl was added to each well, and again cultured for 20 hours. Next, fluorescence was measured at excitation wavelength of 530 nm and fluorescence wavelength of 590 nm using multilabel counter (Wallac-Berthold, Japan), and survival rate of cell was determined.
According to the above-mentioned method, the agonist activity of test compounds was determined.

[3] = test system: ICR male mice; conditions: subcutaneous; 55° C. water bath; time measured after 1, 3 and 6 hours
Procedure: Four to five weeks old ICR male mice (Japan SLC) were used in this test. The mouse was put into a retainer, the tail end was dipped into 55° C. water bath, and the time until the tail end rose to the surface was measured. The time was previously measured before the administration of the drug, and the mouse having the time of less than 2 seconds were selected and used in the test. Cut-off time was set to 10 seconds. The drug was administered subcutaneously, and the time was measured after 1, 3 and 6 hours to evaluate the effects of the drug. The drug was dissolved in a mixture of 10% ethanol, 20% Tween and 80-70% physiological salt solution.

[4] = test system: ICR male mice; test: Measurement of mouse bladder volume; format: in vivo; conditions: for Bladder volume / Bladder volume (mL): sc, 3 hours after administration, urethane anesthesia, Mean ± S.E.; for bladder volume of the mouse (result in words): subcutaneous, mouse anesthetized with urethane
Procedure: Measurement of Mouse Bladder Volume
Five weeks old ICR male mice were used in this test. At 3 hours after the subcutaneous administration of the drug, the abdomen of mouse was cut open under urethane anesthesia (30 mg/mouse) to expose the bladder. Physiological salt solution was infused into the bladder at the rate of 0.05 mL/minutes to check excretion reflection. All of the urine was drained off, and the physiological salt solution was infused again, and then, the bladder volume of mouse was calculated by measuring the time to urination.

SMILES	ED50 [1]	survival rate of the cells [2]	Minimum effective dose [3]	Bladder volume ([4]; 3 mg/kg)	Bladder volume (mL) ([4]; 10 mg/kg, *p ≦ 0.05 vs. vehicle)	Bladder volume (mL) ([4]; 100 mg/kg, **p ≦ 0.01 vs. vehicle)	bladder volume of the mouse (result in words) [4]	Bladder volume ([4]; 0.03 mg/kg)	Bladder volume (mL) ([4]; 0.1 mg/kg, *p ≦ 0.05 vs. vehicle)
CCC(=O)c1cc(NC(=O)Nc2ccc(OC)c(OC)c2)ccc1OC(c1ccccc1)c1ccccc1 [Example 2, N-[(4-Benzhydryloxy)-3-propionylphenyl]-N′-(3,4-dimethoxyphenyl)urea]	2.2 µg	0%	1 mg/kg						
COC(=O)c1cc(NC(=O)Nc2ccccc2)ccc1OC(c1ccccc1)c1ccccc1 [Example 22, Methyl 5-(anilinocarbonylamino)-2-benzhydryloxybenzoate]				0.17 ± 0.03 mL	0.28 ± 0.05* mL	0.31 ± 0.06** mL	increased significantly		
C=C(C)[C@]12C[C@@H](C)[C@@]34O[C@](Cc5ccccc5)(O[C@@H]1[C@@H]3C=C(COC(=O)Cc1ccc(O)c(OC)c1)C[C@]1(O)C(=O)C(C)=C[C@@H]41)O2 [Resiniferatoxin, resiniferatoxin, reference compound]							increased significantly	0.24 ± 0.04 mL	0.39 ± 0.04* mL
